Data set [1] is described as follows: UV/vis absorption and fluorescence of pyrazine dyes. Format: physicochemical.
For data set [2] the following is noted: cited from earlier work.
For data set [3], the system named is serum protein. Conditions: immediately upon intra-venous injection; cited from earlier work.
[4] abbreviates: 100 μM (Example 4 prints 100 μm).

The structures appear in SMILES notation. Counter-ions that a name gives are not always drawn.

Consider `COCCN(CCOC)C(=O)c1nc(N(CCOC)CCOC)c(C(=O)N(CCOC)CCOC)nc1N(CCOC)CCOC` [Example 6], for which, in data set [1] (100 μM in PBS), the “UV/vis λabs” value turned out to be 434 nm. For the same compound, in data set [1] (concentration not given), the “Fluorescence λem” value was found to be 559 nm and the “Fluorescence λex” value was 449 nm.

As to `O=C1OC2(c3ccc(O)cc3Oc3cc(O[C@@H]4O[C@H](C(=O)O)[C@@H](O)[C@H](O)[C@H]4O)ccc32)c2ccccc21` (stereo partly shown) [fluorescein glucuronide], in data set [2] (metabolite versus parent), the “fluorescent yield relative to fluorescein” value is given as 5%.

On to `COCCOCCOCCOCCC(=O)NCCNC(=O)c1nc(N)c(C(=O)NCCNC(=O)CCOCCOCCOCCOC)nc1N` [Example 9, 3,6-diamino-N^2,N^5-bis(14-oxo-2,5,8,11-tetraoxa-15-azaheptadecan-17-yl) pyrazine-2,5-dicarboxamide], for which, in data set [1] (100 nM), the “Fluorescence λem” value worked out at 559 nm and the “Fluorescence λex” value was 437 nm. The “UV/vis λabs” value in data set [1] (100 μM in PBS) came out at 437 nm.

In data set [1], `Nc1nc(C(=O)N[C@@H](CO)C(=O)O)c(N)nc1C(=O)N[C@@H](CO)C(=O)O` [Example 3, 3,6-diamino-N^2,N^5-bis(L-serine)-pyrazine-2,5-dicarboxamide] returned a light absorption maximum of 445 nm and a light emission maximum of 560 nm.

`COCCN(CCOC)c1nc(C(=O)N[C@H](CC(=O)O)C(=O)O)c(N2CCOCC2)nc1C#N` [Example 13, (R)-2-(6-(bis(2-methoxyethyl)amino)-5-cyano-3-morpholinopyrazine-2-carboxamido)succinic Acid] displayed a Fluorescence λem in data set [1] (100 μM) of 570 nm. Besides, in data set [1] (setting [4]), the “Fluorescence λex” value is 449 nm. The “UV/vis λabs” value in data set [1] (100 μM in PBS) came to 438 nm.

Take `Nc1nc(C(=O)N[C@H](CC(=O)O)C(=O)O)c(N)nc1C(=O)N[C@H](CC(=O)O)C(=O)O` [Example 8, 3,6-diamino-N^2,N^5-bis(D-aspartate)-pyrazine-2,5-dicarboxamide]: in data set [1] (100 nM), the “Fluorescence λem” value was 558 nm and the “Fluorescence λex” value came to 449 nm. In data set [1] (100 μM in PBS), the “UV/vis λabs” value worked out at 433 nm.

For the compound `COCCOCCOCCOCCOCCOCCOCCOCCC(=O)NCCNC(=O)c1nc(N)c(C(=O)NCCNC(=O)CCOCCOCCOCCOCCOCCOCCOCCOC)nc1N` [Example 10, 3,6-diamino-N^2,N^5-bis(26-oxo-2,5,8,11,14,17,20,23-octaoxa-27-azanonacosan-29-yl)pyrazine-2,5-dicarboxamide], in data set [1] (100 nM), the “Fluorescence λem” value was determined as 560 nm and the “Fluorescence λex” value worked out at 438 nm. Moreover, the “UV/vis λabs” value in data set [1] (100 μM in PBS) stood at 438 nm.

With `COCCOCCOCCOCCOCCOCCOCCOCCOCCOCCOCCOCCC(=O)NCCNC(=O)c1nc(N)c(C(=O)NCCNC(=O)CCOCCOCCOCCOCCOCCOCCOCCOCCOCCOCCOCCOC)nc1N` [Example 11, 3,6-diamino-N^2,N^5-bis(38-oxo-2,5,8,11,14,17,20,23,26,29,32,35-dodecaoxa-39-azahentetracontan-41-y) pyrazine-2,5-dicarboxamide], in data set [1] (100 nM), the “Fluorescence λem” value worked out at 559 nm and the “Fluorescence λex” value was determined as 449 nm. Moreover, the “UV/vis λabs” value in data set [1] (100 μM in PBS) amounted to 449 nm.

Regarding `Nc1nc(C(=O)NCC(O)CO)c(N)nc1C(=O)NCC(O)CO` (stereo not shown) [Example 5, 3,6-diamino-N^2,N^5-bis (2,3-dihydroxypropyl) pyrazine-2,5-dicarboxamide], in data set [1] (100 μM in H2O), the “UV/vis λabs” value turned out to be 432 nm. Moreover, in data set [1] (concentration not given), the “Fluorescence λem” value turned out to be 558 nm and the “Fluorescence λex” value amounted to 432 nm.

For the compound `COCCN(CCOC)C(=O)c1nc(N)c(C(=O)N(CCOC)CCOC)nc1N` [Example 4, 3,6-diamino-N^2,N^2,N^5,N^5-tetrakis(2-methoxyethyl) pyrazine-2,5-dicarboxamide], the “Fluorescence λex” value in data set [1] (setting [4]) is reported as 394 nm. For the same compound, the “UV/vis λabs” value in data set [1] (100 μM in PBS) is given as 394 nm. In data set [1] (100 μm), the “Fluorescence λem” value is 550 nm.

`NCCNC(=O)c1nc(N)c(C(=O)NCCN)nc1N` [Example 7, 3,6-diamino-N^2,N^5-bis(2-aminoethyl)pyrazine-2,5-dicarboxamide Bis TFA Salt]: in data set [1] (100 nM), the Fluorescence λem was 562 nm and the “Fluorescence λex” value is recorded as 449 nm. For the same compound, the “UV/vis λabs” value in data set [1] (100 μM in PBS) came out at 435 nm.

Turning to `Nc1nc(C(=O)N[C@H](CO)C(=O)O)c(N)nc1C(=O)N[C@H](CO)C(=O)O` [Example 2, 3,6-diamino-N^2,N^5-bis(D-serine)-pyrazine-2,5-dicarboxamide], in data set [1], the light absorption maximum was found to be 445 nm and the light emission maximum amounted to 560 nm. The “UV/vis λabs” value in data set [1] (100 μM in PBS) was 434 nm. Moreover, in data set [1] (concentration not given), the “Fluorescence λem” value is 559 nm and the “Fluorescence λex” value came to 449 nm.

`O=C1OC2(c3ccc(O)cc3Oc3cc(O)ccc32)c2ccccc21` [Sodium fluorescein]: the lipid solubility entry in data set [2] is listed as “relatively high”. For the same compound, the “converted to non-fluorescent serum protein bound molecule” value in data set [3] was 93%.

Values taken from patent US12303570B2, “Compositions and methods for assessing eye vasculature” (MediBeacon Inc., priority 2015, dated 2025).
